Source: patent US20200079765A1, “SUBSTITUTED HETEROARYL PYRROLONES AND SALTS THEREOF AND USE THEREOF AS HERBICIDAL ACTIVE SUBSTANCES” (Bayer CropScience Aktiengesellschaft, priority 2016, published 2020)

Legend:
Setaria viridis [1] = experiment: Herbicidal pre-emergence action (Experimental Part 2, D); format: in vivo; conditions: pre-emergence (Part 2), scored visually after about 3 weeks
Text: (§1) Seeds of mono- and dicotyledonous weed plants were placed in plastic pots in sandy loam soil (doubly sown with in each case one species of mono- or dicotyledonous weed plants per pot) and covered with soil. The compounds of the invention, formulated in the form of wettable powders (WP) or as emulsion concentrates (EC), were then applied onto the surface of the covering soil as aqueous suspension or emulsion with addition of 0.5% additive at a water application rate of 600 liters per hectare (converted). After the treatment, the pots are placed in a greenhouse and kept under good growth conditions for the trial plants. After about 3 weeks, the effect of the preparations was scored visually in comparison with untreated controls as percentages. For example, 100% activity=the plants have died, 0% activity=like control plants. Tables D1 to D8 below show the effects of selected compounds of the general formula (I) according to Tables I.1 to I.116 on various harmful plants and an application rate corresponding to 1280 g/ha or 320 g/ha, which were obtained by the experimental procedure mentioned above.

Stellaria media [2] = experiment: as above; format: in vivo; conditions: pre-emergence (Part 2), scored visually after about 3 weeks
Text: as §1

Abutilon theophrasti [3] = experiment: as above; format: in vivo; conditions: pre-emergence (Part 2), application rate 320 g/ha, scored visually after about 3 weeks
Text: as §1

Matricaria inodora [4] = experiment: as above; format: in vivo; conditions: pre-emergence (Part 2), scored visually after about 3 weeks
Text: as §1

Amaranthus retroflexus [5] = experiment: as above; format: in vivo; conditions: pre-emergence (Part 2), application rate 1280 g/ha, scored visually after about 3 weeks
Text: as §1

Lolium rigidum = experiment: as above; format: in vivo; conditions: pre-emergence (Part 2), scored visually after about 3 weeks
Text: as §1

Poa annua [6] = experiment: as above; format: in vivo; conditions: pre-emergence (Part 2), scored visually after about 3 weeks
Text: as §1

Echinochloa crus-galli [7] = experiment: as above; format: in vivo; conditions: pre-emergence (Part 2), scored visually after about 3 weeks
Text: as §1

Setaria viridis [8] = experiment: Herbicidal post-emergence action (Experimental Part 2, C); format: in vivo; conditions: post-emergence (Part 2), rated visually after about 3 weeks
Experimental: (§2) Seeds of mono- and dicotyledonous weed plants were placed in plastic pots in sandy loam soil (doubly sown with in each case one species of mono- or dicotyledonous weed plants per pot), covered with soil and cultivated in a greenhouse under controlled growth conditions. 2 to 3 weeks after sowing, the test plants were treated at the one-leaf stage. The compounds of the invention, formulated in the form of wettable powders (WP) or as emulsion concentrates (EC), were applied onto the green parts of the plants as aqueous suspension or emulsion with addition of 0.5% additive at a water application rate of 600 liters per hectare (converted). After the test plants had been kept in the greenhouse under optimum growth conditions for about 3 weeks, the activity of the preparations was rated visually in comparison to untreated controls. For example, 100% activity=the plants have died, 0% activity=like control plants. Tables C1 to C8 below show the effects of selected compounds of the general formula (I) according to Tables I.1 to I.116 on various harmful plants and an application rate corresponding to 1280 g/ha or 320 g/ha, which were obtained by the experimental procedure mentioned above.

Stellaria media [9] = experiment: as above; format: in vivo; conditions: post-emergence (Part 2), rated visually after about 3 weeks
Experimental: as §2

Abutilon theophrasti [10] = experiment: as above; format: in vivo; conditions: post-emergence (Part 2), rated visually after about 3 weeks
Experimental: as §2

Matricaria inodora [11] = experiment: as above; format: in vivo; conditions: post-emergence (Part 2), rated visually after about 3 weeks
Experimental: as §2

Amaranthus retroflexus [12] = experiment: as above; format: in vivo; conditions: post-emergence (Part 2), rated visually after about 3 weeks
Experimental: as §2

Poa annua [13] = experiment: as above; format: in vivo; conditions: post-emergence (Part 2), rated visually after about 3 weeks
Experimental: as §2

Echinochloa crus-galli [14] = experiment: as above; format: in vivo; conditions: post-emergence (Part 2), application rate 1280 g/ha, rated visually after about 3 weeks
Experimental: as §2

photosystem II (PS II) = target: T1, photosystem II (PS II) (Spinacia oleracea, UniProt P69560); experiment: Measurement of the PS II activity in thylakoid membranes (DCPIP reduction, Experimental Part 3, Table E1); format: biochemical; conditions: spinach thylakoid membranes
T1 construct: the chloroplasts were osmotically ruptured and the thylakoid membranes were then obtained by centrifugation; from tissue; host or cells: thylakoid membranes from fresh spinach leaves
Experimental: Cooled fresh spinach leaves were comminuted and homogenized in 50 mM phosphate buffer, pH 6.8. 10 mM KCl, 0.34 M sucrose (sucrose buffer) (blender, 1 g of plant material/ml). The homogenate was subsequently filtered through 4 layers of Miracloth and the chloroplasts were isolated by centrifugation, i.e. 10 min of centrifugation at 4400×g (4° C.). The sediment was suspended in 25 ml of sucrose buffer and re-centrifuged for 10 min at 4400×g (4° C.). The sediment was then suspended in 40 ml of 50 mM phosphate buffer, pH 6.8, 10 mM KCl, without sucrose. In this step, the chloroplasts were osmotically ruptured and the thylakoid membranes were then obtained by centrifugation (10 min, 4400×g, 4° C.). The membrane sediment was finally suspended in about 20 ml of 50 mM phosphate buffer, pH 6.8, 10 mM KCl. Following protein determination and activity determination, the membrane suspension was divided into aliquots and frozen in liquid nitrogen. The aliquots were stored at −80° C. Under these conditions, the photosystem II preparation was storage stable for at least three months. The activity determination of photosystem II (PS II) was then carried out using the following test principle: The electron transfer from PS II to an artificial electron acceptor, 2,6-dichlorophenolindophenol (DCPIP), was measured with exposure to light. The concentration of the blue oxidized form of DCPIP was determined spectrophotometrically at wavelength λ=595 nm. […] The activity determination was carried out in microtiter plates (96 cavities) in a reaction volume of 200 μl. Here, 155 μl of dilute membrane suspension were initially charged in 50 mM of phosphate buffer, pH 6.8, 10 mM KCl. Depending on the activity of the PS II preparation, the dilution was adjusted such that the measurement of the decrease in absorption (λ=595 nm) was linear for at least 10 min. In each case 5 μl solution of the test compounds of a concentration of 100 μM in DMSO were added to the enzyme suspension; controls contained 5 μl DMSO; the final concentration of DMSO in the reaction batch was thus 2.5% (v/v); this concentration had no adverse effect on the enzymatic activity. On each microtiter plate, a known PS II inhibitor, for example metribuzin, was used as standard, which allowed the quality of the PS II test to be assessed. The reaction was started by addition of 40 μl DCPIP solution (600 μM in distilled water); the final concentration of DCPIP was 120 μM. Measurement of absorption was carried out over a period of 10 min at 22° C. and with exposure to light. Using metribuzin as comparative substance, the results for the efficacy of the compounds of the general formula (I) at 100 μM are stated in the table below using the following classification: ++++ (inhibition≥90%), +++ (90%>inhibition≥70%), ++ (70%>inhibition≥50%), + (50%>inhibition≥30%).
Effects of selected compounds of the general formula (I) according to the following table E1: […]

CC1=CC(=O)N(c2onc(C(C)(C)C)c2C)C1O (stereo not drawn) [I.1-300]
90%: Amaranthus retroflexus, herbicidal activity (Amaranthus retroflexus [5]) | Lolium rigidum, herbicidal activity (Lolium rigidum; application rate 1280 g/ha) | Poa Annua, herbicidal activity (Poa annua [6]; application rate 320 g/ha)
100%: Setaria viridis, herbicidal activity (Setaria viridis [1]; application rate 1280 g/ha) | Stellaria media, herbicidal activity (Stellaria media [2]; application rate 320 g/ha) | Abutilon theophrasti, herbicidal activity (Abutilon theophrasti [3]) | Matricaria inodora, herbicidal activity (Matricaria inodora [4]; application rate 320 g/ha) | Echinochloa crus-galli, herbicidal activity (Echinochloa crus-galli [7]; application rate 320 g/ha) | Setaria viridis, herbicidal activity (Setaria viridis [8]; application rate 320 g/ha) | Stellaria media, herbicidal activity (Stellaria media [9]; application rate 320 g/ha) | Abutilon theophrasti, herbicidal activity (Abutilon theophrasti [10]; application rate 320 g/ha) | Matricaria inodora, herbicidal activity (Matricaria inodora [11]; application rate 320 g/ha) | Amaranthus retroflexus, herbicidal activity (Amaranthus retroflexus [12]; application rate 320 g/ha) | Poa Annua, herbicidal activity (Poa annua [13]; application rate 320 g/ha) | Echinochloa crus-galli, herbicidal activity (Echinochloa crus-galli [14])
+++ (90%>inhibition≥70%): Effect (inhibition of PS II activity) (photosystem II (PS II))

CCC(=O)OC1C(C)=CC(=O)N1c1cc(C(F)(F)F)c(Cl)cn1 (stereo not drawn) [I.5-451, 5-Ethylcarbonyloxy-4-methyl-1-(5-chloro-4-trifluoromethylpyridin-2-yl)-1,5-dihydro-2H-pyrrol-2-one]
90%: Matricaria inodora, herbicidal activity (Matricaria inodora [4]; application rate 1280 g/ha) | Lolium rigidum, herbicidal activity (Lolium rigidum; application rate 1280 g/ha) | Setaria viridis, herbicidal activity (Setaria viridis [8]; application rate 1280 g/ha) | Matricaria inodora, herbicidal activity (Matricaria inodora [11]; application rate 1280 g/ha)
100%: Setaria viridis, herbicidal activity (Setaria viridis [1]; application rate 320 g/ha) | Stellaria media, herbicidal activity (Stellaria media [2]; application rate 1280 g/ha) | Poa Annua, herbicidal activity (Poa annua [6]; application rate 320 g/ha) | Stellaria media, herbicidal activity (Stellaria media [9]; application rate 1280 g/ha) | Abutilon theophrasti, herbicidal activity (Abutilon theophrasti [10]; application rate 320 g/ha) | Poa Annua, herbicidal activity (Poa annua [13]; application rate 1280 g/ha)

CC1=CC(=O)N(c2noc(C(C)(C)C)c2C)C1O (stereo not drawn) [I.1-177]
100%: Setaria viridis, herbicidal activity (Setaria viridis [1]; application rate 320 g/ha) | Stellaria media, herbicidal activity (Stellaria media [2]; application rate 1280 g/ha) | Abutilon theophrasti, herbicidal activity (Abutilon theophrasti [3]) | Matricaria inodora, herbicidal activity (Matricaria inodora [4]; application rate 1280 g/ha) | Poa Annua, herbicidal activity (Poa annua [6]; application rate 1280 g/ha) | Echinochloa crus-galli, herbicidal activity (Echinochloa crus-galli [7]; application rate 1280 g/ha) | Setaria viridis, herbicidal activity (Setaria viridis [8]; application rate 1280 g/ha) | Stellaria media, herbicidal activity (Stellaria media [9]; application rate 320 g/ha) | Abutilon theophrasti, herbicidal activity (Abutilon theophrasti [10]; application rate 1280 g/ha) | Matricaria inodora, herbicidal activity (Matricaria inodora [11]; application rate 320 g/ha) | Amaranthus retroflexus, herbicidal activity (Amaranthus retroflexus [12]; application rate 1280 g/ha) | Poa Annua, herbicidal activity (Poa annua [13]; application rate 1280 g/ha) | Echinochloa crus-galli, herbicidal activity (Echinochloa crus-galli [14])
90%: Amaranthus retroflexus, herbicidal activity (Amaranthus retroflexus [5]) | Lolium rigidum, herbicidal activity (Lolium rigidum; application rate 320 g/ha)
++++ (inhibition≥90%): Effect (inhibition of PS II activity) (photosystem II (PS II))

CC1=CC(=O)N(c2cc(C(F)(F)F)c(Cl)cn2)C1O (stereo not drawn) [I.1-451, 5-Hydroxy-4-methyl-1-(5-chloro-4-trifluoromethylpyridin-2-yl)-1,5-dihydro-2H-pyrrol-2-one]
90%: Amaranthus retroflexus, herbicidal activity (Amaranthus retroflexus [5]) | Poa Annua, herbicidal activity (Poa annua [6]; application rate 1280 g/ha) | Matricaria inodora, herbicidal activity (Matricaria inodora [11]; application rate 320 g/ha)
100%: Setaria viridis, herbicidal activity (Setaria viridis [1]; application rate 1280 g/ha) | Stellaria media, herbicidal activity (Stellaria media [2]; application rate 320 g/ha) | Matricaria inodora, herbicidal activity (Matricaria inodora [4]; application rate 1280 g/ha) | Stellaria media, herbicidal activity (Stellaria media [9]; application rate 320 g/ha) | Abutilon theophrasti, herbicidal activity (Abutilon theophrasti [10]; application rate 320 g/ha) | Amaranthus retroflexus, herbicidal activity (Amaranthus retroflexus [12]; application rate 1280 g/ha) | Poa Annua, herbicidal activity (Poa annua [13]; application rate 320 g/ha) | Echinochloa crus-galli, herbicidal activity (Echinochloa crus-galli [14])
++++ (inhibition≥90%): Effect (inhibition of PS II activity) (photosystem II (PS II))
